From BindingDB's records for patent US20250346600 (Moma Therapeutics, 2025)

Legend:
[1] = target: T1, Bifunctional 3'-5' exonuclease/ATP-dependent helicase WRN [2-1432] (UniProt Q14191); test: WRN activity Format A
T1 construct: 2-1432
Description: Full length WRN protein (aa 2-1432) (production described separately) was used for the biochemical activity assays. The 39-mer ssDNA “C6.18” ([…]) was purchased from IDT and used as a substrate. Quantification of ATP hydrolysis was evaluated using the ADP-Glo assay kit (Promega, Madison, WI). An enzyme titration time-course was performed to determine the optimal assay conditions. […] To evaluate the inhibitory effects of the compounds, 11-point 3-fold serial dilutions were prepared in DMSO.50nL of each concentration in duplicate was preincubated for 30 minutes in a 384-well microplate (Greiner #784075) with 5μL of 0.5nM WRN in assay buffer. The reaction was initiated by adding 5μL of 200nM C6.18 DNA with 20μM ATP and was allowed to proceed for 30 minutes at room temperature. The reaction was stopped with 10μL ADP-Glo reagent for 1 hour to remove unreacted ATP. Lastly, 20μL ATP detection reagent was added and incubated for 1 hour to generate the luminescence signal. Control wells included “high controls” with no inhibition (DMSO, no compound) and “low controls” with maximum inhibition (no WRN). Luminescence was recorded on a PHERAstar (BMG Labtech, Ortenberg, Germany). Data was fit using the “Smart Fit” method within the Genedata Screener Software (Basel, Switzerland) to obtain IC50 values using four-parameter fits. Reported IC50s are the geometric means of at least two independent trials.

[2] = target: T1, Bifunctional 3'-5' exonuclease/ATP-dependent helicase WRN [2-1432]; test: WRN activity Format B
Description: The 39-mer ssDNA “C6.18” ([…]) was purchased from IDT and used as a substrate. Quantification of ATP hydrolysis was evaluated using the ADP-Glo assay kit (Promega, Madison, WI). An enzyme titration time-course was performed to determine the optimal assay conditions. […] Data was fit using the “Smart Fit” method within the Genedata Screener Software (Basel, Switzerland) to obtain IC50 values using four-parameter fits. Reported IC50s are the geometric means of at least two independent trials.

T1 sequence (Q14191 2-1432): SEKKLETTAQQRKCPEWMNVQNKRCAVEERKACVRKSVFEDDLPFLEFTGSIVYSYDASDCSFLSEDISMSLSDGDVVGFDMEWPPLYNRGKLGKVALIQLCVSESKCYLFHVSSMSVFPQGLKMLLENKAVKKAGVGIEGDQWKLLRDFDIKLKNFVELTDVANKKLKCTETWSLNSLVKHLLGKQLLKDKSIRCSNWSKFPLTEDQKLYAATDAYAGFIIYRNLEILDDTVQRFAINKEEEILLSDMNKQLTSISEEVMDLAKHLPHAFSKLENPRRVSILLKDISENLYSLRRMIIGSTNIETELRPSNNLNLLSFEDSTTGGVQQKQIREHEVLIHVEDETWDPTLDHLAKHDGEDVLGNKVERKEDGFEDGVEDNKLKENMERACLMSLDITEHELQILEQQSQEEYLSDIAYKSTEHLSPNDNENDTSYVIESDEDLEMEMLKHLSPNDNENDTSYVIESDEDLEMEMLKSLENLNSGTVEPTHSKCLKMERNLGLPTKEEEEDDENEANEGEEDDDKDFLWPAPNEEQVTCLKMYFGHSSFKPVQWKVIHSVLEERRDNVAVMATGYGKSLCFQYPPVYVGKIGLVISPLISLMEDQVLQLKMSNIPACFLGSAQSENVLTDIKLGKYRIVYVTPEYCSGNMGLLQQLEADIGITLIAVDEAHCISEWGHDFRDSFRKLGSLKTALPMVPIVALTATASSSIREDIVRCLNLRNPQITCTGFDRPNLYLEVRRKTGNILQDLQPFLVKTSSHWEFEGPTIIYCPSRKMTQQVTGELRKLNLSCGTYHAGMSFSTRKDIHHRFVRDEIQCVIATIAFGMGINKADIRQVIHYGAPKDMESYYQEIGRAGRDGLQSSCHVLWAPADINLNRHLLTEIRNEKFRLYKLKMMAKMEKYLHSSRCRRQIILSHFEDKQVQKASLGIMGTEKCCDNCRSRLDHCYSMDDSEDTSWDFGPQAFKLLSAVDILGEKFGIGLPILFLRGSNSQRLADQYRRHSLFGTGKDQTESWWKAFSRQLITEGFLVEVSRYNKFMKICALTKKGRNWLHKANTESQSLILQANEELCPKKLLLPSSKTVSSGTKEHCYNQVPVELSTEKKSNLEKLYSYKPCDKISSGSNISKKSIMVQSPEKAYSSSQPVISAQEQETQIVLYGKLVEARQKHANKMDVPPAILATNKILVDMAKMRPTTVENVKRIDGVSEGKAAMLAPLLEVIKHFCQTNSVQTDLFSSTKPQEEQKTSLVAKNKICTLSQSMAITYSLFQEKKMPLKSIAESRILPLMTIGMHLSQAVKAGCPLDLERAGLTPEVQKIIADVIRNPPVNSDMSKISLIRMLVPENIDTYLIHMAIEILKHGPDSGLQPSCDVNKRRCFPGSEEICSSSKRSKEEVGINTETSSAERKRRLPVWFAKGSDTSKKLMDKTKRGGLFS

| IC50 [1] | IC50 [2] | Structure (SMILES) |
| --- | --- | --- |
| < 1.5 nM | in the range around 35 nM | C=CC(=O)N1CCOc2nn(-c3ccc(C4CCC4)cc3O)c3c2C(C1)N(C(=O)C1=CC2=NN=C(Br)C2=CC1)CC3 (stereo not drawn) [US20250346600, Compound 40] |
| in the range around 35 nM | – | C=CC(=O)N1CCc2nn(-c3ccc(C4CC4)cc3)c3c2C(C1)N(C(=O)C1=CN=C2N=C(C(F)(F)F)N=C2C1)CC3 (stereo not drawn) [US20250346600, Compound 124] |
